pIC50: −log10 of the molar value. In brackets after ≈: the same amount, converted by molar mass. Several values for one entry are separate records, joined by “and”; a condition that tells them apart may be missing. Equal entries are not always repeated.
Assays:
[1] = system: E. coli W3110 gyrA S97L, S83L, D87N; experiment: MIC against CRISPR/Cas9 gyrA point mutants; format: cell-based, Escherichia coli; settings: for MIC: Escherichia coli
Procedure: MIC was determined by broth microdilution. Single-colony cultures were grown to exponential phase (OD600 of 0.5) aerobically at 37 °C. In case of strains from the Keio collection, 50 µg ml^−1 kanamycin was supplemented to the media to ascertain a homogeneous population. The bacterial suspensions were diluted 100-fold in CAMHB and 50 µl was added to a twofold serial dilution series of test compounds (50 µl per well) in polypropylene 96-well microtitre plates to reach a volume of 100 µl. The plates were sealed with breathable membranes and incubated overnight at 37 °C with constant shaking (600 r.p.m.). The MIC was determined as the lowest concentration at which no visible bacterial growth was observed as compared with the inoculum controls from the median of a minimum of triplicates.
Mutants of the DNA gyrase subunit A encoding gene (gyrA) were constructed following the protocol for gene editing via the CRISPR–Cas9 system. Strains and plasmids used are listed in Supplementary Table 15, and primers used can be found in Supplementary Table 16. The following mutations were created: S97L in E. coli W3110. Two common mutations in the gyrA gene that give resistance to fluoroquinolone antibiotics were created in E. coli W3110, namely S83L and D87N. To create the gyrA (S97L) mutants, the construct psgRNA-gyrA-M5 was assembled as follows: The 20-nt spacer sequence was introduced by PCR on pTargetF using primers gyrA_P11 and gyrA_P12, the homology-directed repair (HDR) arms were amplified from E. coli W3110 genomic DNA by PCR using primer pairs gyrA_P05 and gyrA_P013, and gyrA_P08 and gyrA_P14. The three PCR fragments generated were cloned into the SpeI and BglII digested pTargetF via Gibson assembly. To avoid off-target effects of CRISPR, besides desired point mutation for gyrA (S97L), four other silent point mutations were also included in the HDR template. Consequently, the amino acid sequence of gyrA will remain the same in the generated mutant except for the desired mutation. Similarly, constructs psgRNA-gyrA-S83L and psgRNA-gyrA-D87N were created to introduce mutations S83L and D87N in gyrA, respectively. In psgRNA-gyrA-S83L, spacer sequence was introduced using primers gyrA_P12 and gyrA_P17, HDR template was amplified using primer pairs gyrA_P05 and gyrA_P18, and gyrA_P08 and gyrA_P19. In psgRNA-gyrA-D87N, spacer sequence was introduced using primers gyrA_P12 and gyrA_P20, HDR template was amplified using primer pairs gyrA_P05 and gyrA_P21, and gyrA_P08 and gyrA_P22. The verified constructs for gyrA engineering were transformed into E. coli W3110 carrying pCas9, and plated in LB containing kanamycin (50 µg ml^−1) for the selection of the pCas9 plasmid and spectinomycin (100 µg ml^−1) for the selection of psgRNA-gyrA-X. The plates were incubated at 30 °C. Plasmids were cured by growing the strains with 0.5 mM isopropylthiogalactoside with no antibiotics to lose first the psgRNA-gyrA plasmids. After losing the spectinomycin resistance, the strain was grown in LB with no antibiotics at 42 °C to lose the pCas plasmid. Colony PCR was performed on plasmid-free colonies using primers gyrA_P9 and gyrA_P10, and PCR products were sequenced to confirm the desired mutation

[2] = system: E. coli BW25113 and single-gene knockouts; experiment: MIC on E. coli strains of the Keio collection; format: cell-based, Escherichia coli; settings: Escherichia coli, BW25113, read-out: MIC E. coli BW25113, parent strain
Outline: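 Broth microdilution in CAMHB with twofold compound series; exponential-phase cultures (OD600 0.5) diluted 100-fold as inoculum, Keio strains pre-grown with 50 µg ml^−1 kanamycin. Overnight incubation at 37 °C, shaking 600 r.p.m. MIC is lowest concentration without visible growth, median of at least triplicates.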

[3] = system: HEK293T; experiment: Cytotoxicity assay (MTT); format: cell-based, human; settings: for MTT data (raw readout): HEK293T; for pIC50: 24 h, MTT
Outline: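 HEK293T cells, maintained at 37 °C and 7% CO2 in Dulbecco’s modified Eagle medium with GlutaMax, antibiotics and serum, were plated in clear 96-well plates in 100 µl medium containing 1% fetal bovine serum and left 24 h to attach. After 24 h compound exposure, MTT (0.40 mg ml^−1) was added for 2 h. Formazan was dissolved in 100 µl DMSO and absorbance measured at 570 nm. Background-corrected IC50 values came from variable-slope non-linear fits.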

[4] = system: HepG2; experiment: Cytotoxicity assay (MTT); format: cell-based, human; settings: for pIC50: MTT, 24 h

## O=S(=O)(NCCNCc1ccc(-c2ccc(F)nc2)cc1)c1cccc2cnccc12 [Compound 60]
[1]; CRISPR–Cas9 S97L
  susceptibility of gyrA S97L mutant: resistant
[1]; E. coli W3110 gyrA D87N (FQ-resistant 2)
  MIC: 50 µM (≈ 21.8 µg/mL)
[1]; E. coli W3110 gyrA S83L (FQ-resistant 1)
  MIC: 25 µM (≈ 10.9 µg/mL)
[1]; E. coli W3110 gyrA S97L (LEI-800-resistant)
  MIC: > 50 µM
[2]
  MIC: 6.25 µM (≈ 2.73 µg/mL)
[3]; HEK293T and HepG2
  cytotoxicity: lowest cytotoxicity
[3]; 0.023 uM, experiment n = 1, technical triplicates
  MTT data (raw readout): 0.733 and 0.692
[3]; 0.023 uM, experiment n = 2, technical triplicates
  MTT data (raw readout): 0.767 and 0.777 and 0.816
[3]; 0.068 uM, experiment n = 1, technical triplicates
  MTT data (raw readout): 0.746 and 0.796 and 0.737
[3]; 0.068 uM, experiment n = 2, technical triplicates
  MTT data (raw readout): 0.800 and 0.790 and 0.829
[3]; 0.21 uM, experiment n = 1, technical triplicates
  MTT data (raw readout): 0.734 and 0.766 and 0.710
[3]; 0.21 uM, experiment n = 2, technical triplicates
  MTT data (raw readout): 0.783 and 0.732 and 0.731
[3]; 0.62 uM, experiment n = 1, technical triplicates
  MTT data (raw readout): 0.735 and 0.740 and 0.733
[3]; 0.62 uM, experiment n = 2, technical triplicates
  MTT data (raw readout): 0.809 and 0.824 and 0.770
[3]; 1.85 uM, experiment n = 1, technical triplicates
  MTT data (raw readout): 0.725 and 0.718 and 0.739
[3]; 1.85 uM, experiment n = 2, technical triplicates
  MTT data (raw readout): 0.764 and 0.783 and 0.787
[3]; Homo sapiens, HEK-293T
  pIC50: 4.29
[3]
  pIC50: < 4.30
[4]; HepG2, 0.023 uM, experiment n = 1, technical triplicates
  MTT data (raw readout): 0.514 and 0.522 and 0.506
[4]; HepG2, 0.023 uM, experiment n = 2, technical triplicates
  MTT data (raw readout): 0.553 and 0.550 and 0.561
[4]; HepG2, 0.068 uM, experiment n = 1, technical triplicates
  MTT data (raw readout): 0.526 and 0.514 and 0.522
[4]; HepG2, 0.068 uM, experiment n = 2, technical triplicates
  MTT data (raw readout): 0.571 and 0.568 and 0.585
[4]; HepG2, 0.21 uM, experiment n = 1, technical triplicates
  MTT data (raw readout): 0.544 and 0.520 and 0.508
[4]; HepG2, 0.21 uM, experiment n = 2, technical triplicates
  MTT data (raw readout): 0.610 and 0.553 and 0.611
[4]; HepG2, 0.62 uM, experiment n = 1, technical triplicates
  MTT data (raw readout): 0.525 and 0.501 and 0.502
[4]; HepG2, 0.62 uM, experiment n = 2, technical triplicates
  MTT data (raw readout): 0.621 and 0.610 and 0.573
[4]; HepG2, 1.85 uM, experiment n = 1, technical triplicates
  MTT data (raw readout): 0.546 and 0.544 and 0.528
[4]; HepG2, 1.85 uM, experiment n = 2, technical triplicates
  MTT data (raw readout): 0.581 and 0.605
[4]; Homo sapiens, HepG2, 24 h
  pIC50: < 4.00
[4]
  pIC50: < 4.30

From publication PMC11374673, “Discovery of isoquinoline sulfonamides as allosteric gyrase inhibitors with activity against fluoroquinolone-resistant bacteria” (Nature Chemistry, 2024)
